Assay [1] has as its system Wnt ligand-induced signaling. Description: Wnt-responsive Super-TOpFlash (STF) luciferase reporter gene assay in HEK293 cells. The note with it: 20% Wnt3A conditioned medium, read-out: HEK293STF IC50. The format is cell-based. The method, then:
Cellular Reporter Gene Assay to Determine Compound Inhibition of Wnt Signaling Activity
Compound activity in inhibiting Wnt ligand-induced signaling was measured using a Wnt-responsive Super-TOpFlash (STF) luciferase reporter gene assay in HEK293 cells. On day 1 of the assay, cells were plated at a density of 8000 cells per well of 384-well plate in 25 μl medium containing 5% fetal bovine serum (FBS). On the second day, […] condition medium (CM) produced from mouse L cells was added to the cells to induce Wnt signaling, followed by addition of 5 μL of compounds each well in 10-point serial dilution. On the third day, the luciferase activity was measured by the Bright-Glo™ Luciferase Assay System following manufacture's protocol (Promega, E2620). The Inhibition was calculated as: (Maximum Wnt-induced signaling−Sample)/(Maximum Wnt-induced signaling−Background)*100. “Maximum Wnt-induced signaling” is the STF signal level induced by 20% Wnt3A CM without compound; and “Background” is the STF signal level without the addition of Wnt3A CM or compound.

The target in assay [2] is human tankyrase 1 PARP catalytic domain, TNKS1P (Homo sapiens (Human), UniProt O95271). Description: TNKS1 autoparsylation enzymatic assay (LC/MS detection of nicotinamide). Type of assay: biochemical. The note with it: 20 nM enzyme, 250 μM β-NAD+, 60 min, read-out: TNKS1 AP IC50. An excerpt: (§1) The human tankyrase 1 PARP catalytic domain, TNKS1P, was cloned into a pDONR221 vector using the Invitrogen Gateway Technology. This entry clone was then subcloned into the destination vector pDEST20 to obtain the N-terminal Glutathione S-transferase (GST)-tagged fusion protein. GST-TNKS1P was then expressed in Sf21 cells using the Invitrogen baculovirus expression system (Invitrogen-Bac-to-Bac® Baculovirus Expression System, Version D). The protein was purified by a GSTrap column (GE Healthcare). The N-terminal GST-tagged tankyrase 2 protein PARP domain, TNKS2P, was cloned, expressed, and purified in a similar manner. Human PARP1 (Cat. No. 4668-100-01) and activated DNA (Cat. No. 4671-096-06) were purchased from Trevigen, Inc. PARP2 (Cat. No. ALX-201-064-C020) was purchased from Alexis Biochemical.
The % Inhibition was calculated as: (Control−Sample)/(Control−Background)*100. “Control” is the average value of 8 wells without compound; and “Background” is the average of 8 wells mixed with 5× quenching solution measured prior to initiation of the reaction.

The target of assay [3] is TNKS2 (GST-tagged tankyrase 2 PARP domain, TNKS2P) (Homo sapiens (Human), UniProt Q9H2K2). Description: TNKS2 autoparsylation enzymatic assay (LC/MS detection of nicotinamide). The format is biochemical. The settings on record: 20 nM enzyme, 250 μM β-NAD+, 60 min, read-out: TNKS2 AP IC50.
From the text: as §1, with “manner.” for “manner. Human PARP1 (Cat. No. 4668-100-01) and activated DNA (Cat. No. 4671-096-06) were purchased from Trevigen, Inc. PARP2 (Cat. No. ALX-201-064-C020) was purchased from Alexis Biochemical.”
The % Inhibition was calculated as: (Control−Sample)/(Control−Background)*100.

The text below walks through data of patent US9227982B2 (NOVARTIS AG, priority 2011, dated 2016).

Where two headings read alike, the source gives them in different places.

Sequence of human tankyrase 1 PARP catalytic domain, TNKS1P (O95271 1112-1317): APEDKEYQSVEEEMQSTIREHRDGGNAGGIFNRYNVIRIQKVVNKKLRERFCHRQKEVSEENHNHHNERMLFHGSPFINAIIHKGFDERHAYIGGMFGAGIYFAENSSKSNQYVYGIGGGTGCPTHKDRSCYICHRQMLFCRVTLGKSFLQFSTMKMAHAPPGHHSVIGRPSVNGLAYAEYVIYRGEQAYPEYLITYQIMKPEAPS
Sequence of TNKS2 (GST-tagged tankyrase 2 PARP domain, TNKS2P) (Q9H2K2 959-1164): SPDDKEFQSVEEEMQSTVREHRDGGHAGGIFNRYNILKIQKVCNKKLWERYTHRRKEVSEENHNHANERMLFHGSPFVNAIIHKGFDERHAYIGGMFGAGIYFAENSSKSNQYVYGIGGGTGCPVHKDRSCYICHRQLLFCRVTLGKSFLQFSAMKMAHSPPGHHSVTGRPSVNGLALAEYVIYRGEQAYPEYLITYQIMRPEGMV

Usually IC50 stands for the midpoint of a concentration-inhibition curve. For `O=C(CCc1c[nH]c2ccccc12)N(Cc1nc2c(c(=O)[nH]1)COCC2)Cc1cccs1` [Example 3, 3-(1H-Indol-3-yl)-N-(4-oxo-3,5,7,8-tetrahydro-4H-pyrano[4,3-d]pyrimidin-2-ylmethyl)-N-thiophen-2-ylmethyl-propionamide], the IC50 in assay [1] (Homo sapiens) worked out at 9.31 ± 3.9 µM.

For the compound `O=C(CCc1cccc(F)c1)N(Cc1nc2c(c(=O)[nH]1)COCC2)Cc1cccs1` [Example 5, 3-(3-Fluorophenyl)-N-((4-oxo-4,5,7,8-tetrahydro-3H-pyrano[4,3-d]pyrimidin-2-yl)methyl)-N-(thiophen-2-ylmethyl)propanamide], in assay [2], the IC50 worked out at 1.58 ± 0.014 µM.

Turning to `O=C(CCc1ccccc1O)N(Cc1nc2c(c(=O)[nH]1)COCC2)Cc1cccs1` [Example 6, 3-(2-Hydroxy-phenyl)-N-(4-oxo 3,5,7,8-tetrahydro-4H-pyrano[4,3-d]pyrimidin-2-ylmethyl)-N-thiophen-2-ylmethyl-propionamide], the IC50 in assay [2] is 5.19 ± 0.227 µM.

For `O=C(CCc1ccc(O)cc1)N(Cc1nc2c(c(=O)[nH]1)COCC2)Cc1cccs1` [Example 8, 3-(4-Hydroxy-phenyl)-N-(4-oxo-3,5,7,8-tetrahydro-4H-pyrano[4,3-d]pyrimidin-2-ylmethyl)-N-thiophen-2-ylmethyl-propionamide], in assay [2], the IC50 was 1.42 ± 0.04 µM.

For the compound `O=c1[nH]c(CN(Cc2cccs2)S(=O)(=O)Cc2ccccc2)nc2c1COCC2` [Example 9, N-((4-Oxo-4,5,7,8-tetrahydro-3H-pyrano[4,3-d]pyrimidin-2-yl)methyl)-1-phenyl-N-(thiophen-2-ylmethyl)methanesulfonamide], the IC50 in assay [1] (Homo sapiens) was found to be 0.9 ± 0.23 µM.

For `O=c1[nH]c(CN(Cc2cccs2)S(=O)(=O)CCc2ccccc2)nc2c1COCC2` [Example 10, 2-Phenyl-ethanesulfonic acid (4-oxo-3,5,7,8-tetrahydro-4H-pyrano[4,3-d]pyrimidin-2-ylmethyl)-thiophen-2-ylmethyl-amide], the half-inhibitory concentration (IC50) in assay [1] (Homo sapiens) is 2.43 ± 0.94 µM.

On to `O=C(CCc1ccncc1)N(Cc1nc2c(c(=O)[nH]1)COCC2)Cc1cccs1` [Example 11, N-((4-Oxo-4,5,7,8-tetrahydro-3H-pyrano[4,3-d]pyrimidin-2-yl)methyl)-3-(pyridin-4-yl)-N-(thiophen-2-ylmethyl)propanamide], for which, in assay [2], the 50% inhibitory concentration (IC50) turned out to be 4.17 ± 0.26 µM.

In the case of `O=C(CCc1ccccc1)N(Cc1nc2c(c(=O)[nH]1)COCC2)CC1CCCC1` [Example 13, N-Cyclopentylmethyl-N-(4-oxo-3,5,7,8-tetrahydro-4H-pyrano[4,3-d]pyrimidin-2-ylmethyl)-3-phenyl-propionamide], the IC50 came to 4.09 ± 1.29 µM in assay [1] (Homo sapiens), 4.78 ± 0.36 µM in assay [2] and 0.995 ± 0.094 µM in assay [3].

With `O=C(CCc1ccccc1)N(Cc1nc2c(c(=O)[nH]1)COCC2)Cc1ccccc1F` [Example 14, N-(2-Fluorobenzyl)-N-((4-oxo-4,5,7,8-tetrahydro-3H-pyrano[4,3-d]pyrimidin-2-yl)methyl)-3-phenylpropanamide], the figures for the IC50 in assay [1] (Homo sapiens), in assay [2] and in assay [3] were 4.09 ± 0.1 µM, 5.61 ± 0.24 µM and 1.05 ± 0.05 µM, respectively.

Regarding `CCN(Cc1nc2c(c(=O)[nH]1)COCC2)C(=O)CCc1ccccc1` [Example 15, N-Ethyl-N-((4-oxo-4,5,7,8-tetrahydro-3H-pyrano[4,3-d]pyrimidin-2-yl)methyl)-3-phenylpropanamide], in assay [2], the IC50 is more than 19 µM.

Turning to `CC(C)N(Cc1nc2c(c(=O)[nH]1)COCC2)C(=O)CCc1ccccc1` [Example 16, N-Isopropyl-N-((4-oxo-4,5,7,8-tetrahydro-3H-pyrano[4,3-d]pyrimidin-2-yl)methyl)-3-phenylpropanamide], the IC50 was 34.9 µM in assay [1] (Homo sapiens), more than 19 µM in assay [2] and 5.39 ± 1.63 µM in assay [3].

Turning to `CC(C)(C)C(=O)CN(Cc1nc2c(c(=O)[nH]1)COCC2)C(=O)CCc1ccccc1` [Example 17, N-(3,3-Dimethyl-2-oxobutyl)-N-((4-oxo-4,5,7,8-tetrahydro-3H-pyrano[4,3-d]pyrimidin-2-yl)methyl)-3-phenylpropanamide], the IC50 in assay [1] (Homo sapiens) came out at 14.3 ± 1 µM; in assay [2] it was 17.1 ± 2 µM; in assay [3], 2.99 ± 0.036 µM.

As for `O=C(CCc1ccccc1)N(Cc1nc2c(c(=O)[nH]1)COCC2)Cc1nccs1` [Example 19, N-((4-Oxo-4,5,7,8-tetrahydro-3H-pyrano[4,3-d]pyrimidin-2-yl)methyl)-3-phenyl-N-(thiazol-2-ylmethyl)propanamide], the half-inhibitory concentration (IC50) in assay [1] (Homo sapiens) worked out at 8.56 ± 0.42 µM; in assay [2], 11.4 ± 0.4 µM; in assay [3], 2.03 ± 0.04 µM.

Take `O=C(CCc1ccccc1)N(Cc1nc2c(c(=O)[nH]1)COCC2)Cc1ncco1` [Example 20, N-(Oxazol-2-ylmethyl)-N-((4-oxo-4,5,7,8-tetrahydro-3H-pyrano[4,3-d]pyrimidin-2-yl)methyl)-3-phenylpropanamide]: the IC50 was determined as 14.3 ± 4 µM in assay [1] (Homo sapiens), 4.6 ± 0.2 µM in assay [2] and 1.7 ± 0.03 µM in assay [3].

As for `O=C(CCc1ccccc1)N(Cc1nc2c(c(=O)[nH]1)COCC2)Cc1ccc(Cl)s1` [Example 21, N-((5-Chlorothiophen-2-yl)methyl)-N-((4-oxo-4,5,7,8-tetrahydro-3H-pyrano[4,3-d]pyrimidin-2-yl)methyl)-3-phenylpropanamide], the IC50 in assay [1] (Homo sapiens) stood at 1.97 ± 0.56 µM; in assay [2] it was 1.61 ± 0.11 µM; in assay [3], 0.318 ± 0.009 µM.

As for `O=C(CCc1ccccc1)N(Cc1nc2c(c(=O)[nH]1)COCC2)Cc1cncs1` [Example 22, N-((4-Oxo-4,5,7,8-tetrahydro-3H-pyrano[4,3-d]pyrimidin-2-yl)methyl)-3-phenyl-N-(thiazol-5-ylmethyl)propanamide], the figures for the IC50 in assay [1] (Homo sapiens), in assay [2] and in assay [3] were 18.2 ± 4.5 µM, 17.5 ± 1 µM and 3.48 ± 0.71 µM, respectively.

On to `O=C(CCc1ccccc1)N(CCO)Cc1nc2c(c(=O)[nH]1)COCC2` [Example 23, N-(2-Hydroxy-ethyl)-N-(4-oxo-3,5,7,8-tetrahydro-4H-pyrano[4,3-d]pyrimidin-2-ylmethyl)-3-phenyl-propionamide], for which the IC50 in assay [1] (Homo sapiens) was more than 50 µM; in assay [2] it was 16.93 ± 0.02 µM; in assay [3], 2.68 ± 0.077 µM.

For `C[C@@H](c1ccccc1)N(Cc1nc2c(c(=O)[nH]1)COCC2)S(=O)(=O)Cc1ccccc1` [Example 24, (S)—N-((4-Oxo-4,5,7,8-tetrahydro-3H-pyrano[4,3-c]pyrimidin-2-yl)methyl)-1-phenyl-N-(1-phenylethyl)methanesulfonamide], the values for the IC50 in assay [1] (Homo sapiens), in assay [2] and in assay [3] were 15.7 ± 0.8 µM, 18.1 ± 1.9 µM and 3.12 ± 0.06 µM, respectively.

Consider `C[C@H](c1ccccc1)N(Cc1nc2c(c(=O)[nH]1)COCC2)S(=O)(=O)Cc1ccccc1` [Example 25, (R)—N-((4-Oxo-4,5,7,8-tetrahydro-3H-pyrano[4,3-d]pyrimidin-2-yl)methyl)-1-phenyl-N-(1-phenylethyl)methanesulfonamide], for which the IC50 in assay [1] (Homo sapiens) stood at 23.2 ± 7.9 µM; in assay [2], 9.08 ± 0.76 µM; in assay [3] it was 1.85 ± 0.06 µM.

For `O=C(CCc1ccccc1F)N(Cc1ccc[nH]1)Cc1nc2c(c(=O)[nH]1)COCC2` [Example 26, N-((1H-Pyrrol-2-yl)methyl)-3-(2-fluorophenyl)-N-((4-oxo-4,5,7,8-tetrahydro-3H-pyrano[4,3-d]pyrimidin-2-yl)methyl)propanamide], the IC50 in assay [1] (Homo sapiens) amounted to 5 ± 0.72 µM; in assay [2], 1.17 ± 0.12 µM; in assay [3], 0.235 ± 0.024 µM.

As to “N-((4-Oxo-4,5,7,8-tetrahydro-3H-pyrano[4,3-d]pyrimidin-2-yl)methyl)-3-(pyridin-4-yl)-N-(thiophen-2-ylmethyl)propanamide [Example 12]”, the results for the half-inhibitory concentration (IC50) in assay [1] and in assay [2] were 41 ± 1.6 µM and 14.6 ± 0.4 µM, respectively.
